Source: patent US20090170869A1, “PIPERAZINE DERIVATIVE HAVING AFFINITY FOR THE HISTAMINE H3 RECEPTOR” (priority 2007, published 2009)

What was measured:
[1] = molecular target: T1, brain histamine H3 receptor (Rattus norvegicus, UniProt Q9QYN8); test: Rat ex vivo binding studies - rat brain histamine H3 receptor occupancy ([3H]-R-α-methylhistamine); type: in vivo; details: for inhibition of [3H]-R-α-methylhistamine specific binding to the H3 receptor (surrogate for rat brain H3 receptor occupancy): 10 mg/kg oral; for specific binding of [3H]-R-α-methylhistamine to the H3 receptor: rats n=3, 10 mg/kg oral, mean ± SEM
T1 construct: from tissue; host or cells: cerebral cortex homogenate of adult male Lister hooded rats
T1 sequence (Q9QYN8 whole entry): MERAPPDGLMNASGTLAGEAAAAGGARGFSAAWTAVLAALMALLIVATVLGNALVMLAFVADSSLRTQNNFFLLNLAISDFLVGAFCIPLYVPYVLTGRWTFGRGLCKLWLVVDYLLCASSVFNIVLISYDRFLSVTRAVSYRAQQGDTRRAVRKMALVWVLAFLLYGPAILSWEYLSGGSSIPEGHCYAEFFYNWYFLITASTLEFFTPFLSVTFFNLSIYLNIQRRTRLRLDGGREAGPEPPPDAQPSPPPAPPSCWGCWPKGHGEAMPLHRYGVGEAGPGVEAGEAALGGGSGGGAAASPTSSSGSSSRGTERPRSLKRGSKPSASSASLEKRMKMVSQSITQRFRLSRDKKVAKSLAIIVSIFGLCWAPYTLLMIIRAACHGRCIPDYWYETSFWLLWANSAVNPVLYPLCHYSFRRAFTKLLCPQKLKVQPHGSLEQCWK
Experimental: Ex vivo binding studies were carried out to determine brain histamine H3 receptor occupancy in rats at certain time points after oral administration of a test compound.
Adult male rats (Lister hooded 200-250 g, Charles River, UK) received vehicle (1% w/v aqueous methylcellulose) (control) or the test compound (10 mg/kg) by oral gavage (n=3 per group) and were sacrificed 1 or 4 hours following oral dosing. The 1 hour and 4 hour studies were not necessarily done on the same day. Terminal blood samples were collected and brains rapidly removed. Cerebral cortex tissue was dissected from half of each brain for ex vivo binding; the other half brain can be used for pharmacokinetic analysis of brain concentrations of each compound. All dissected tissue samples were snap-frozen in liquid nitrogen, and stored at −80° C. until use. The tissues were rapidly thawed and homogenised in approximately 30 volumes of ice cold assay reaction buffer. The assay reaction buffer contained 50 mM Tris-HCl (made up using Trizma pre-set crystals pH 7.7 @25° C., Sigma cat. No. T8068-250G) and 5 mM EDTA, with a final buffer pH of 7.2 to 7.8, usually about 7.4. The crude homogenate (600-800 μg/well) was then used to measure H3 receptor binding using [^3H]-R-α-methylhistamine as radioligand. Assays measuring total binding of [^3H]-R-α-methylhistamine consisted of 50 μl assay reaction buffer, 400 μl of homogenate (corresponding to 600-800 μg/well) and 50 μl of 2 nM R(−)α-Methyl[imidazole-2,5(n)-3H]histamine dihydrochloride ([^3H]-R-α-methylhistamine; specific activity, 24 Ci mmol^−1, Amersham Biosciences, catalogue no. TRK1017). Incubations with [^3H]-R-α-methylhistamine were for 45 min at 30° C. Non-specific binding of [^3H]-R-α-methylhistamine was determined in parallel using the same assay except that 50 μl of 10 μM imetit (an H3 receptor agonist, e.g. available from Tocris) was used instead of the 50 μl of assay reaction buffer. The experiments were terminated by rapid filtration through Whatman GF/B filters (pre-soaked in 0.3% v/v polyethyleneimine (PEI)), and then the filters were washed through with 4×5 ml of ice cold harvesting buffer. The harvesting buffer contained 50 mM Tris-HCl (from Trizma pre-set crystals pH 7.7 @ 25° C.) and 5 mM MgCl2, with a final buffer pH of 7.2 to 7.8, usually about 7.4. Filters were dried and added to vials each containing 4 ml Ultima Gold MV scintillation fluid (Hewlett Packard) and radioactivity determined by liquid scintillation spectrometry using a Packard Tri-Carb 2500TR liquid scintillation counter.
Specific binding of [^3H]-R-α-methylhistamine to the H3 receptor was determined by the subtraction of the value obtained for non-specific binding from the value obtained for total binding.
Protein concentrations were determined using the Bradford assay method (Bio-Rad
Protein Assay Dye Reagent Concentrate, catalogue no. 500-0006; from Bio-Rad Laboratories GmbH, Heidemannstrasse 164, 80939 Muenchen, Germany; or from Bio-Rad, York, UK) with bovine serum albumin as a standard. Specific radioactivity in the samples was corrected for protein (i.e. per microgram of protein).
The specific binding of [^3H]-R-α-methylhistamine to the H3 receptor is expressed as a mean (n=3 rats)±SEM (standard error of the mean), as a percentage of vehicle-treated control animals. Data is also expressed as inhibition of [^3H]-R-α-methylhistamine specific binding to the H3 receptor, as a surrogate measure for H3 receptor occupancy by the test compound, calculated as 100% minus the % mean specific binding of [^3H]-R-α-methylhistamine to the H3 receptor.

[2] = Plasma clearance in the pig-PET study; type: in vivo; details: Yorkshire-Landrace, iv, 50 ug/kg, 50 micrograms/kg i.v.
male Sprague Dawley rats = test: Toxicity Study 1: 7-day oral repeat-dose study in male Sprague Dawley rats; type: in vivo, rat; details: for tolerability: male rats
Experimental: Three male rats were added at each non-zero dose level for toxicokinetic evaluation. All doses and concentrations, including analyte concentration in plasma, are expressed in terms of the parent “free base” compound.
The following endpoints/parameters were evaluated for toxicology animals: clinical observations, body weights, food consumption measurements, selected haematology and selected clinical chemistry results, liver weights, selected macroscopic and microscopic observations, and selected hepatic gene expression analysis. Toxicokinetic evaluation (serial profiling) was performed on samples collected from satellite animals on Days 1 and 7. For male rats dosed at 30 or 100 mg/kg/day, histopathology observations carried out were on kidneys, mesentery and mandibular lymph node only. For male rats dosed at 0 mg/kg/day (control) and 300 mg/kg/day, histopathology observations carried out were on adrenals, brain, heart, kidneys, liver, lung, mandibular lymph node, mesentery, stomach, testes, and thymus (except that mandibular lymph node observations were for 0 mg/kg/day dosed rats only).

Sprague Dawley rats = test: Toxicity Study 2: 7-day oral dose range-finding study in Sprague Dawley rats; type: in vivo, rat
Experimental: Three male rats and three female rats were added at 600 mg/kg/day and 3 female rats were added at 300 mg/kg/day for toxicokinetic evaluation.
The following endpoints/parameters were evaluated for toxicology animals: clinical observations, body weights, food consumption, selected haematology, selected clinical chemistry, liver weights, and selected macroscopic and microscopic observations. Toxicokinetic evaluation was performed on samples collected on Day 1 (300 and 600 mg/kg/day dosing) and Day 7 (300 mg/kg/day dosing only).

H3 receptor = H3 receptor (Sus scrofa, UniProt A0A287B9V8); test: Pig-PET study with [11C]GSK189254: pig brain H3 receptor occupancy over time and kon-koff limited model; details: 50 micrograms/kg i.v.; for Measured H3 receptor occupancy @ 10 min: 10 minutes post administration; for Measured H3 receptor occupancy @ 2.5 h: 2.5 hours post administration; for Measured H3 receptor occupancy @ 6 h: 6 hours post administration; for Kd: Kd (koff/kon)
Sequence of H3 receptor (A0A287B9V8 1-448): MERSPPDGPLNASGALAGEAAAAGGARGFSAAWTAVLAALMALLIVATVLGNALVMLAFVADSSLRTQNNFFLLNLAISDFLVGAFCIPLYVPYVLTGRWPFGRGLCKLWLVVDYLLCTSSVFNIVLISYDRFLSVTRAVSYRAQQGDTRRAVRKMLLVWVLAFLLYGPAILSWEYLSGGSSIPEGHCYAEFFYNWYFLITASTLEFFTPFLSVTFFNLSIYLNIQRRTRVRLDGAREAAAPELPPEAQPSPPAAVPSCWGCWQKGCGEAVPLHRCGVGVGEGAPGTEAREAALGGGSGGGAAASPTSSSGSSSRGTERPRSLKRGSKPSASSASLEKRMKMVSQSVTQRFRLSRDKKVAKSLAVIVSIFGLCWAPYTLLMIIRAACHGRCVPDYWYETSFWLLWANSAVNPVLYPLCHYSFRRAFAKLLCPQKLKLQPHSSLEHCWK

[3] = rat, in vivo, po, 300 mg/kg/day
[4] = mean ± standard deviation, n=3 pigs

For `CC(C)N1CCN(C(=O)c2ccc(OC3CCOCC3)cc2)CC1.Cl` [Example E1], the “inhibition of [3H]-R-α-methylhistamine specific binding to the H3 receptor (surrogate for rat brain H3 receptor occupancy)” value ([1]; 1 hour after dosing) was “about 60%”, the “inhibition of [3H]-R-α-methylhistamine specific binding to the H3 receptor (surrogate for rat brain H3 receptor occupancy)” value ([1]; 4 hours after dosing) was “about 16%” and the “specific binding of [3H]-R-α-methylhistamine to the H3 receptor” value ([1]; sacrificed 1 hour after dosing) was 40%+2%. For the same molecule, the “specific binding of [3H]-R-α-methylhistamine to the H3 receptor” value ([1]; sacrificed 4 hours after dosing) was 84%+6%, the clearance ([2]; average model (from average plasma data)) was 38.3 mL/min and the clearance ([2]; mean of pigs 1-3) was 41.7 mL/min. The clearance ([2]; pig 1) was 48.3 mL/min, the clearance ([2]; pig 2) was 50 mL/min and the clearance ([2]; pig 3) was 30 mL/min. The tolerability (male Sprague Dawley rats; 300 mg/kg/day oral for 7 days (measured as free base)) was “moderately well tolerated”, the tolerability (male Sprague Dawley rats; 30 or 100 mg/kg/day oral for 7 days (measured as free base)) was “well tolerated” and the food consumption (male Sprague Dawley rats; [3]) was “ca. 0.80 × pretreatment”. The “periarterial inflammatory cell infiltrate in the hilar region of the kidneys” value (male Sprague Dawley rats; [3]) was “minimal in severity, was noted in the hilar region of the kidneys of all four male rats”, the tolerability (Sprague Dawley rats; conclusion from Toxicity Studies 1 and 2: male and female rats, 7 days oral, doses up to 300 mg/kg/day) was “well tolerated or moderately well tolerated” and the tolerability (Sprague Dawley rats; female rats, 300 mg/kg/day oral for 7 days (measured as free base)) was “moderately well tolerated”. The tolerability (Sprague Dawley rats; male or female rats, 600 mg/kg/day oral (only 2 days)) was “not tolerated”, the “certain haematology and other clinical chemistry parameters” value (Sprague Dawley rats; [3]) was “increased” and the clinical signs (Sprague Dawley rats; [3]) was “chewing movements, rubbing chin on the cage floor, and certain other clinical signs”. For the same molecule, the “glandular dilation of the fundic region of the stomach” value (Sprague Dawley rats; [3]) was “of minimal severity, was observed in most female rats”, the “reduction in pig brain H3 receptor occupancy as compared to salt B” value (H3 receptor; n=3 pigs, preliminary measurements) was “generally faster reduction” and the “Measured H3 receptor occupancy @ 10 min” value (H3 receptor; [4]) was 58% ± 4%. The “Measured H3 receptor occupancy @ 10 min” value (H3 receptor; pig 1) was 61%, the “Measured H3 receptor occupancy @ 10 min” value (H3 receptor; pig 2) was 54% and the “Measured H3 receptor occupancy @ 10 min” value (H3 receptor; pig 3) was 58%. The “Measured H3 receptor occupancy @ 2.5 h” value (H3 receptor; [4]) was 30% ± 11%, the “Measured H3 receptor occupancy @ 2.5 h” value (H3 receptor; pig 1) was 43% and the “Measured H3 receptor occupancy @ 2.5 h” value (H3 receptor; pig 2) was 24%. For the same molecule, the “Measured H3 receptor occupancy @ 2.5 h” value (H3 receptor; pig 3) was 22%, the “Measured H3 receptor occupancy @ 6 h” value (H3 receptor; [4]) was 14% ± 14% and the “Measured H3 receptor occupancy @ 6 h” value (H3 receptor; pig 1) was 30%. For the same molecule, the “Measured H3 receptor occupancy @ 6 h” value (H3 receptor; pig 2) was 7%, the “Measured H3 receptor occupancy @ 6 h” value (H3 receptor; pig 3) was 5% and the Kd (H3 receptor; average model (from average plasma data and average occupancy)) was 9.14 nM. It also gave a Kd (H3 receptor; mean of pigs 1-3) of 9.08 nM, a Kd (H3 receptor; pig 1, in vivo PK/RO model) of 4.47 nM and a Kd (H3 receptor; pig 2, in vivo PK/RO model) of 9.35 nM. It also gave a Kd (H3 receptor; pig 3, in vivo PK/RO model) of 13.4 nM.
